US10617659B2, “Valproate as a topical anti-fungal treatment” (Wayne State University, priority 2016, dated 2020)

Columns and labels:
[1] = test system: Wild type Saccharomyces cerevisiae cells (strain BY4741); test: Growth of yeast cells in the presence or absence of VPA and/or NaCl (absorbance at 550 nm); assay type: cell-based; conditions: single agent (VPA or NaCl) in synthetic medium, 30° C.
Procedure: The combined effect of osmotic stress and valproate (VPA) is deleterious to yeast cells. Wild type Saccharomyces cerevisiae cells (strain BY4741) were grown in synthetic medium in the presence or absence of VPA and/or NaCl. Cells were incubated at 30° C., and growth was monitored spectrophotometrically by measuring absorbance at 550 nm.

[2] = test system: Candida albicans (Strain Sc 5314); test: Hyphae formation in Candida cells, serum-induced (percentage of cells forming hyphal structures); assay type: cell-based; conditions: in the presence of VPA
Procedure: Hyphae formation is at its peak after 3 hours of incubation at 37° C. at 200 rpm. An overnight culture of Candida albicans (Strain Sc 5314) was prepared using serum-free RPMI-64 medium. Cells were pelleted at 7,500×g and resuspended in RPMI-64 supplemented with 10% Fetal Bovine Serum (FBS) to induce hyphae formation. Cultures were incubated at 37° C. in a rotary shaker at 200 rpm. Samples were drawn out at one-hour intervals and observed for development of hyphal structures.
(§1) An overnight culture of C. albicans was prepared using serum-free RPMI-64 medium. Cells were pelleted at 7,500×g and resuspended in RPMI-64/10% FBS with or without 0.1M NaCl and/or 2 mM VPA as indicated. Cultures were incubated at 37° C. in a rotary shaker at 200 rpm for 3 hours. For each sample, 300-500 cells were counted and the percentage of cells forming hyphal structures was calculated. Values represent the mean of three independent experiments±S.E. (error bars).
as §1, with “sorbitol” for “NaCl”, “Values represent the mean of three independent experiments±S.E. (error bars).” left out

Question: With `CCCC(CCC)C(=O)O` [VPA, Valproic acid (di-n-propyl acetic acid)] as the compound, how does the Growth decreased [1] read?
Answer: 50%

Question: And the “Transformation of Candida yeast cells into hyphae forming cells” value [2]?
Answer: greatly reduced

Question: For `[Cl-].[Na+]` [NaCl, sodium chloride], which Growth decreased [1] is on record?
Answer: 50%
